According to patent US9434711B2 (Janssen Pharmaceutica, NV, priority 2007, dated 2016):

Target: canine TRPM8 (Canis lupus familiaris, UniProt Q1A7N1)
Assay: In Vitro Canine TRPM8 Functional Assay (Ca2+ fluorescence, icilin activation)
Type: cell-based
Conditions: for IC50: HEK293 cells stably expressing canine TRPM8, icilin activation, eight-point dose-response, read-out: IC50; for inhibition at 0.2 µM / % Inh @ 0.2 (μM): compound at 0.2 μM, canine TRPM8, icilin activation; for inhibition at 0.2 µM: read-out: % Inh @ 0.2
Procedure, shortened: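 Eight-point dose-response curves, each point averaging quadruplicate wells, gave EC50 or IC50. Canine TRPM8-expressing HEK293 cells, dye-loaded (Calcium 3), were pre-exposed 5 min to compound, then challenged with icilin at roughly EC80; intracellular Ca2+ read by FLIPR or FDSS fluorescence.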

Sequence of canine TRPM8 (Q1A7N1 1-1104): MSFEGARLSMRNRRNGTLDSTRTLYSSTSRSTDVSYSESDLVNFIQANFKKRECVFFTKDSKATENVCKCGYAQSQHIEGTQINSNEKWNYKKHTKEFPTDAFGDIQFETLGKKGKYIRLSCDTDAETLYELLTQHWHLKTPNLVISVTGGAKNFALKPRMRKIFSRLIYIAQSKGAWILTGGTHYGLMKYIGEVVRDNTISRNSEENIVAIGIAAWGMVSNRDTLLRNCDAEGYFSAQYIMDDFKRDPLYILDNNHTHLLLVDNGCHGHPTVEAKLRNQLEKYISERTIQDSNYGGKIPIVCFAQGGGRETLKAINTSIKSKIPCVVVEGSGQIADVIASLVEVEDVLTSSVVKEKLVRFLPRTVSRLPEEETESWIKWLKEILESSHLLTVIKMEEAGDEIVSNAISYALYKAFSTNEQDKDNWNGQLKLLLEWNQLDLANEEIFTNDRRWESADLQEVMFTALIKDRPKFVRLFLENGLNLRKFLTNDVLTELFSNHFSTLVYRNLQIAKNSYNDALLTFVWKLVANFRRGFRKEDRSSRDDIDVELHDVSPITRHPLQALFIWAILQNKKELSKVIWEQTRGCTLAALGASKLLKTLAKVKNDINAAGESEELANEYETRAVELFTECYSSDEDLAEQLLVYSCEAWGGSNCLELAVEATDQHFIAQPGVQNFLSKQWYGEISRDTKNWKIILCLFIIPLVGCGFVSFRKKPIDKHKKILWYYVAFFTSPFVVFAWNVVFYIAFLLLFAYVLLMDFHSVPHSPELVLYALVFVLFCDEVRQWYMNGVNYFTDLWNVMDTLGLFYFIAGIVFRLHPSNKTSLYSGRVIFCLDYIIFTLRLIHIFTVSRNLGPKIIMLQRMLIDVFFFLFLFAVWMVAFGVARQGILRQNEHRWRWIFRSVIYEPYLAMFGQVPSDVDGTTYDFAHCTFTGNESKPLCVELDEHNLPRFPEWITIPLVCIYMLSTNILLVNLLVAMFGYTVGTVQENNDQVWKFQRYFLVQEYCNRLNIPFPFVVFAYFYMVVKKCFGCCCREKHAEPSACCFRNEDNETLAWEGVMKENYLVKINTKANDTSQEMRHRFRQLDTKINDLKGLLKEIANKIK

SMILES	IC50	inhibition at 0.2 µM	% Inh @ 0.2 (μM)
Cc1c(N(Cc2ccc(F)c(C(F)(F)F)c2)S(=O)(=O)c2ccc(-c3cc(C(F)(F)F)nn3C)s2)sc2ccccc12 [Compound 326, N-(3-Methyl-benzo[b]thiophen-2-yl)-N-(4-fluoro-3-trifluoromethyl-benzyl)-5-(2-methyl-5-trifluoromethyl-2H-pyrazol-3-yl)-thien-2-ylsulfonamide]	–	14%	–
Cc1c(N(Cc2ccc(F)c(C(F)(F)F)c2)S(=O)(=O)c2ccc(-c3cc(C(F)(F)F)on3)s2)sc2ccccc12 [Compound 329, N-(3-Methyl-benzo[b]thiophen-2-yl)-N-(4-fluoro-3-trifluoromethyl-benzyl)-5-(5-trifluoromethyl-isoxazol-3-yl)-thien-2-ylsulfonamide]	–	17%	–
Cc1c(N(Cc2ccc(F)c(C(F)(F)F)c2)S(=O)(=O)c2cnc(Cl)c(Br)c2)sc2ccccc12 [Compound 330, N-(3-Methyl-benzo[b]thiophen-2-yl)-N-(4-fluoro-3-trifluoromethyl-benzyl)-5-bromo-6-chloro-pyridin-3-ylsulfonamide]	88 nM	80%	–
Cc1c(N(Cc2ccc(F)c(C(F)(F)F)c2)S(=O)(=O)c2cnc(Cl)c(Cl)c2)sc2ccccc12 [Compound 331, N-(3-Methyl-benzo[b]thiophen-2-yl)-N-(4-fluoro-3-trifluoromethyl-benzyl)-5,6-dichloro-pyridin-3-ylsulfonamide]	90 nM	71%	–
CC(=O)Nc1ccc(S(=O)(=O)N(Cc2ccc(F)c(C(F)(F)F)c2)c2sc3ccccc3c2C)cc1Cl [Compound 336, N-(3-Methyl-benzo[b]thiophen-2-yl)-N-(4-fluoro-3-trifluoromethyl-benzyl)-(3-chloro-4-acetamide)-benzenesulfonamide]	15 nM	–	101%

Continued by falling IC50, values first:

IC50	inhibition at 0.2 µM	SMILES	% Inh @ 0.2 (μM)
37 nM	97%	COC(=O)c1ccc(S(=O)(=O)N(Cc2ccc(F)c(C(F)(F)F)c2)c2sc3ccccc3c2C)o1 [Compound 327, N-(3-Methyl-benzo[b]thiophen-2-yl)-N-(4-fluoro-3-trifluoromethyl-benzyl)-5-carbomethoxy-furan-2-yl-sulfonamide]	–
35 nM	94%	Cc1c(N(Cc2ccc(F)c(C(F)(F)F)c2)S(=O)(=O)c2cn(C)nc2C(F)(F)F)sc2ccccc12 [Compound 328, N-(3-Methyl-benzo[b]thiophen-2-yl)-N-(4-fluoro-3-trifluoromethyl-benzyl)-1-methyl-3-trifluoromethyl-1H-pyrazol-4-ylsulfonamide]	–
19 nM	–	Cc1c(N(Cc2ccc(F)c(C(F)(F)F)c2)S(=O)(=O)c2c(Cl)nc3sccn23)sc2ccccc12 [Compound 337]	101%
9 nM	101%	Cc1nnc(-c2cccc(S(=O)(=O)N(Cc3ccc(F)c(C(F)(F)F)c3)c3sc4ccccc4c3C)c2)o1 [Compound 333, N-(3-Methyl-benzo[b]thiophen-2-yl)-N-(4-fluoro-3-trifluoromethyl-benzyl)-3-(5-methyl-[1,3,4]oxadiazol-2-yl)-benzenesulfonamide]	–
6 nM	98%	Cc1c(N(Cc2ccc(F)c(C(F)(F)F)c2)S(=O)(=O)c2ccc(-c3cnco3)cc2)sc2ccccc12 [Compound 334]	–
5 nM	102%	O=S(=O)(c1ccccc1)N(Cc1ccc(OC(F)(F)F)cc1)c1sc2ccccc2c1C(F)(F)F [Compound 325, N-(3-Trifluoromethyl-benzo[b]thiophen-2-yl)-N-(4-trifluoromethoxy-benzyl)-benzenesulfonamide]	–
1 nM	101%	CC(O)c1c(N(Cc2ccc(F)c(C(F)(F)F)c2)S(=O)(=O)c2ccc(C(=O)O)cc2)sc2ccccc12 (stereo not shown) [Compound 335, N-(4-Fluoro-3-trifluoromethyl-benzyl)-N-[3-(1-hydroxy-ethyl)-benzo[b]thiophen-2-yl]-4-carboxybenzenesulfonamide]	–
